Entries after “also recorded” stand apart in the source; their conditions may differ.
Assays:
[1] = biological target: T1, human P2X7 receptor (hP2X7R) (Homo sapiens, UniProt Q99572); assay: In vitro autoradiography on rat brain cryosections locally overexpressing hP2X7R; details: co-incubation with blocker 10 µM, tracer 28 nM, n = 2
T1 sequence (Q99572 1-595): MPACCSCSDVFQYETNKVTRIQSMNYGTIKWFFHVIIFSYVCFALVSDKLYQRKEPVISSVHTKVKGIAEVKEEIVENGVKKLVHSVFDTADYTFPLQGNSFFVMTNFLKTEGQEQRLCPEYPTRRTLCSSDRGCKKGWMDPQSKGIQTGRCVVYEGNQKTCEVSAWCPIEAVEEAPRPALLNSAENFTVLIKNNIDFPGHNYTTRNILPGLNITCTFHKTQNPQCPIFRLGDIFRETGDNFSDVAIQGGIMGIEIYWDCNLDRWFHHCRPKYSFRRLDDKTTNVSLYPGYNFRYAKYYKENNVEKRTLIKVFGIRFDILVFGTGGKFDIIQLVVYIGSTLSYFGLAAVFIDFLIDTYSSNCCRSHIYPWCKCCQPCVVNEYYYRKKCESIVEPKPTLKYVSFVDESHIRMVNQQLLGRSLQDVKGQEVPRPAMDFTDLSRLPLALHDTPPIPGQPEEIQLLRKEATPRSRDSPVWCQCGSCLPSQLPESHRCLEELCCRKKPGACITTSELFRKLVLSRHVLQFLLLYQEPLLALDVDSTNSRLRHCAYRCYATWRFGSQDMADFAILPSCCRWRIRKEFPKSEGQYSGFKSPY
Method: Snap frozen brain tissue was cut on a cryostat into 20 μm sections.
Stereotactic injection of viral vector
Female Wistar rats (n=7) were anaesthetised by intraperitoneal (i.p.)
injection of ketamine (75 mg·kg-1); Ketalar, Pfizer, Brussels, Belgium) and medetomidin (1 mg·kg-1;
Domitor, Pfizer) and positioned in a stereotactic head frame (Stoelting, Wood Dale, IL, USA). Right and
left striatum were injected with 4 µL of the hP2X7R vector (rAAV_3flag-hP2X7R) and of the control
vector (rAAV_3flag-eGFP), respectively, at a rate of 0.25 µL·min-1, using a 30-gauge needle connected
to a 10 µL Hamilton syringe. Coordinates used for striatal injection of the hP2X7R vector were:
anteroposterior 0 cm, lateral -0.28 cm and dorsoventral -0.64 cm relative to bregma. Coordinates
used for striatal injection of the eGFP vector were: anteroposterior 0 cm, lateral +0.28 cm and
dorsoventral -0.64 cm relative to bregma. After injection, the needle was kept in place for another 5
minutes before removing it slowly. To reverse the anaesthesia, the rats were injected intraperitoneally
with 0.5 mg·kg-1 atipamezol (Antisedan, Orion Pharma, Newburry, Berkshire, UK).
Rats were sacrificed for in
vitro autoradiography at 3 (n=2) and 12 (n=5) weeks after vector injection.
Snap frozen brains of female Wistar rats (rAAV_3flag-hP2X7R in right striatum; rAAV_3flag-eGFP in left
striatum; sacrificed 3 weeks (n = 2) or 12 weeks (n = 5) after vector injection) were cut on a Leica
CM3050 S cryostat (Leica Biosystems, Nussloch, Germany) at -19 °C in transversal sections of 20 µm,
thaw-mounted on SuperFrostTM Plus (Thermo Fisher Scientific, Waltham, MA, USA) object glasses,
dried overnight on silica at 4 °C and then stored at -20 °C until use.
Upon use, sections were thawed to room temperature for an hour
before washing the sections in 5 mM Tris-HCl buffer (pH 7.4) at room temperature (3x 5 min). Sections
were dried in a cold stream of air before incubation (30 min) with 5 mM Tris-HCl buffer (pH 7.4)
concentration. After incubation, sections were washed (3x 1.5 min) in ice-cold 5 mM Tris-HCl buffer
(pH 7.4) followed by a dip in ice-cold demineralised water. Sections were dried in a stream of air and
then exposed to a storage phosphor screen (BAS-IP SR 2040 E, GE Healthcare Europe GmbH,
Eindhoven, the Netherlands) and the screen was read out on a Typhoon FLA 7000 phosphor imager
(GE Healthcare Europe GmbH, Eindhoven, the Netherlands).
quantified using ImageQuantTL Analysis Toolbox (version 8.1, GE Healthcare). In case of the rat brain
sections, regions of interest (ROIs) were defined around the striatum. […] Results are expressed as mean intensity, or as
percentage of tracer binding, relative to total tracer binding in the contralateral striatum. Experiments
with rAAV_3flag-hP2X7R injected rat brains were performed as a duplicate of quadruplicates.
Statistical analysis of quantitative autoradiography data (unpaired t test, two-tailed) was performed

[2] = Extended single microdose toxicity study in Wistar rats; type: in vivo
Method: A single microdose toxicity study for P2X7R antagonist SMW139 was performed according to EMEA guideline EMA/CPMP/ICH/286/1995 (December 2009) in healthy Wistar rats (male and female) at a dose of 0.12 mg·kg^−1. Rats were administered SMW139 or vehicle and parameters assessed post-dose were clinical signs and mortality, changes in body weight, food consumption, terminal haematology, coagulation and clinical chemistry parameters, gross pathology and organ weights. Further details are described in the Supplementary Information. […]
Extended single microdose toxicity study
A single microdose toxicity study according to EMEA guideline EMA/CPMP/ICH/286/1995 (December 2009) was performed in healthy Wistar rats at a 1000 times higher dose than the maximal dose […]
minimum specific activity of 18.5 GBq·µmol-1). Animals were allowed to acclimatise for 10 days, group-housed and in an enriched environment with food and water available ad libitum, and with a 12-hour light-dark cycle in a temperature controlled room. Post-dosing, animals were single-housed, but with the ability to communicate. SMW139 was formulated in 6.7% EtOH in acetate/citrate buffer (citric acid monohydrate (8 mg·mL-1), sodium citrate dehydrate (16 mg·mL-1) and sodium acetate trihydrate (7 mg ·mL-1); pH 5.2) with 2.5% Tween-80. Male and female Wistar rats (244-355 g; Charles River, Tranent, Edinburgh, United Kingdom) were injected intravenously via the tail vein under light isoflurane anaesthetics with formulated SMW139 (1 mL·kg-1, corresponding to a single dose of 0.12 mg·kg-1; female n = 10; male n = 10), or vehicle only (1 mL·kg-1; female n = 10; male n = 10) and animals were sacrificed 24 hours (SMW139; female n = 5; male n = 5; vehicle; female n = 5; male n = 5) or 14 days (SMW139; female n = 5; male n = 5; vehicle; female n = 5; male n = 5) post-dose by exsanguination

[3] = Ex vivo metabolite analysis (plasma and brain) in healthy male Wistar rats; parameters: species or system rat
Method: In vivo stability of analogues [^11C]1–3 and [^11C]SMW139 was assessed in healthy male Wistar rats at 15 and 45 minutes after injection of 30–40 MBq of formulated tracer. […] Results obtained in plasma correspond with previously reported stability results in rat liver microsomes. A higher level of intact tracer was found in brain (Table 3) for [^11C]1 and [^11C]SMW139 compared with [^11C]2 and [^11C]3. Despite optimisation of the extraction method, the percentage of total radioactivity that could be extracted from brain homogenates was not optimal for all four compounds (59 ± 6% for [^11C]1; 58 ± 7% for [^11C]2; 61 ± 4% for [^11C]3; 62 ± 3% for [^11C]SMW139). Therefore, based on its highest stability in plasma in vivo, [^11C]SMW139 was selected for further in vivo studies. As imaging studies were performed in female rats, plasma metabolites were also determined in two female rats, and no differences were found between plasma metabolism of [^11C]SMW139 in male and female rats (Table S1; Supplementary Information).
For each of the carbon-11 labelled benzamide analogues [^11C]1–3 and [^11C]SMW139, a biodistribution study and metabolite analysis in healthy male Wistar rats was performed, as described in detail in the Supplementary Information. Briefly, tracer distribution in blood, brain, and peripheral organs was measured at 5, 15, 30 and 45 min after intravenous injection of 13–23 MBq of formulated tracer. Metabolite analysis was performed at 15 and 45 min after intravenous injection of 30–40 MBq of formulated tracer in both blood plasma and brain. […]
Ex vivo metabolite analysis
Healthy male and female Wistar rats (254-440 g) were injected with 30-40 MBq (at start of experiment) of formulated tracer in the tail vein under isoflurane anaesthesia. Rats were sacrificed at 15 and 45 min (n = 3 per time point). Blood samples were obtained and the brain was excised. Blood samples were collected in heparin tubes (BD Vacutainer NH 119 I.U., 7 mL, BD Vacutainer Systems, Plymouth, UK) and centrifuged at 4,000 rpm for 5 min at 4 °C (Hettich Universal 32, Andreas Hettich GmbH & Co.KG, Tuttlingen, Germany). Plasma supernatant was separated from blood cells and loaded onto a tC18 Sep-Pak (Waters, Milford, MA, USA), followed by washing with 3 mL of water to obtain the polar fraction. The non-polar fraction was then eluted with 2 mL of MeOH and 1 mL of water and further analysed by HPLC. The brain was put in a falcon tube containing 4 mL MeCN/H2O (50:50 v/v) and homogenised with a disperser (IKA T18 B Ultra-Turrax, IKA®-Werke GmbH & Co.KG, Staufen, Germany) before centrifugation (5 min, 4,000 rpm, 20 °C, Hettich Universal 32). Supernatant was separated from brain precipitate and analysed by HPLC. Analytical HPLC was performed with Dionex (Sunnyvale, CA, USA) UltiMate 3000 HPLC equipment with Chromeleon software (version 6.8) on a Gemini C18 5-µm (10 x 250 mm) column (Phenomenex, Torrance, CA, USA) with gradient and a mixture of MeCN (A) and 0.1% DIPA in water (B) as eluent according to the following scheme: 0 min, […]
0.25 mL·min-1. All separate fractions were counted for radioactivity in a Wizard Gammacounter 1470 or 2480 (Wallac/PerkinElmer, Waltham, MA, USA).

[4] = LogDoct,7.4 by shake-flask method (1-octanol / 0.2 M phosphate buffer pH 7.4); type: physicochemical; details: mean ± SD, read-out: LogDoct,7.4 (n = 3)
Method: The LogDoct,7.4 of analogues [^11C]1–3 and [^11C]SMW139 ([^11C]4) was determined using the shake-flask method (partitioning between 1-octanol and 0.2 M phosphate buffer (pH 7.4)). Determined LogDoct,7.4 values (Table 1) show the same trend as LogD values reported by Wilkinson et al.[10].
LogDoct,7.4 of [^11C]1–3 and [^11C]SMW139 was determined by the shake-flask method as described in the Supplementary Information.
Analytical HPLC chromatogram of [11C]SMW139 formulation (Platinum C18, MeCN/H2O/TFA 45:55:0.1, 1 […]
Determination of LogDoct,7.4
The distribution of radiolabelled compound between 1-octanol and 0.2 M phosphate buffer (pH = 7.4) was measured at room temperature. Briefly, 1 mL of a 20 MBq·mL-1 solution of radiolabelled compound in 0.2 M phosphate buffer (pH = 7.4) was mixed with 1 mL of 1-octanol for 1 min using a vortex mixer. After a settling period of 30 min, three samples of 100 μL were taken from both layers.
All samples were counted for radioactivity in a Wallac Universal Gammacounter 1282 (PerkinElmer, Waltham, MA, USA). The LogDoct,7.4 value was calculated according to LogDoct,7.4 = 10Log(Aoct/Abuffer), where Aoct and Abuffer represent average radioactivity counts of the three 1-octanol and the three […]
(1 picture or pasted object on this page, not shown here)

[5] = rat plasma, 15 min p.i., male Wistar rats
[6] = rat plasma, 45 min p.i., male Wistar rats

| Block of [^11C]SMW139 binding in rAAV_3flag-hP2X7R striatum [1] | Intact tracer (%) ([3]; rat brain, 15 min p.i.) | Intact tracer (%) ([3]; rat brain, 45 min p.i.) | Intact tracer (%) [3, 5] | Intact tracer (%) [3, 6] | logD [4] | SMILES | Food consumption ([2]; single i.v. dose 0.12 mg·kg^−1) | Haematology, coagulation and clinical chemistry parameters ([2]; single i.v. dose 0.12 mg·kg^−1) | Necropsy findings ([2]; single i.v. dose 0.12 mg·kg^−1) | Organ weights ([2]; single i.v. dose 0.12 mg·kg^−1) | Toxic / clinical effects ([2]; single i.v. dose 0.12 mg·kg^−1, male and female rats) | Body weight curves vs vehicle ([2]; single i.v. dose 0.12 mg·kg^−1, p ≥ 0.05) |
| --- | --- | --- | --- | --- | --- | --- | --- | --- | --- | --- | --- | --- |
| 79 ± 10% |  |  |  |  |  | COc1ccc(CC(=O)NC(NC(=NC#N)Nc2cccc3ncccc23)C(C)(C)C)cc1OC (stereo not shown) [A-740003, N-(1-{[(Cyanoimino)(5-quinolinylamino)methyl]amino}-2,2-dimethylpropyl)-2-(3,4-dimethoxyphenyl)acetamide, reference compound] |  |  |  |  |  |  |
|  |  |  |  |  |  | COc1ccc(Cl)c(C(=O)NCC23CC4(F)CC(F)(CC(F)(C4)C2)C3)c1 [SMW139] | stable in all groups | No treatment-related changes | no abnormalities suggesting a toxic effect | No significant differences in organ weights | no abnormalities, complications or toxic clinical effects were observed; also recorded: no adverse or toxic effects; also recorded: no toxic effects | did not differ between vehicle injected animals and animals injected with SMW139 |
|  | 82 ± 1% | 76 ± 2% | 37 ± 5% | 25 ± 1% | 2.88 ± 0.14 | [11CH3]Oc1ccc(Cl)c(C(=O)NCC23CC4CC(CC(C4)C2)C3)c1 [[^11C]1] |  |  |  |  |  |  |
|  | 67 ± 5% | 32 ± 4% | 37 ± 7% | 15 ± 2% | 2.93 ± 0.02 | [11CH3]Oc1ccc(Cl)c(C(=O)NCC23CC4CC(CC(F)(C4)C2)C3)c1 [[^11C]2] |  |  |  |  |  |  |
|  | 62 ± 2% | 32 ± 2% | 35 ± 1% | 16 ± 1% | 2.71 ± 0.01 | [11CH3]Oc1ccc(Cl)c(C(=O)NCC23CC4CC(F)(CC(F)(C4)C2)C3)c1 [[^11C]3] |  |  |  |  |  |  |

— publication PMC5920098, “Identification of the allosteric P2X7 receptor antagonist [^11C]SMW139 as a PET tracer of microglial activation” (Scientific Reports, 2018)
